Assay results reported in patent US20120230970A1, “METHOD FOR TREATING PERVASIVE D[…]” (CUREMARK, LLC, priority 1999, published 2012).

Tests used:
autistic children [1] = test: CARS (Childhood Autism Rating Scale) test pre- and post-secretin administration (Experiment 1); format: in vivo, human; conditions: 16 autistic children; 3 weeks post infusion vs pre-secretin
Procedure: Upon determining that a given child was likely to benefit from secretin administration based on the results of the fecal chymotrypsin test, the child was administered a CARS (Childhood Autism Rating Scale) test prior to being scheduled for secretin infusion.
For each of the 16 autistic children tested, a preferred secretin infusion process according to the present invention was performed involving the administering of 1 U/kg of body weight of Secretin-Ferring for a period of nine months at intervals of approximately 6 weeks. In addition, another CARS test was administered to each of the 16 autistic children 3 weeks post secretin administration to determine if their autism had changed post infusion.
A preferred secretin infusion process includes the initial step of prepping an arm of the candidate child with an IV injection of saline. A test dose of 1 U of Secretin-Ferring is then administered to the child. Approximately one minute after, infusion, the child is examined for signs of allergic reaction including rash, increased heart rate, and increase of blood pressure. […] Subsequently, each child receives a 1 U/kg of body weight infusion of Secretin-Ferring approximately every 6 weeks for 9 months. It is to be understood that any commercially available form of secretin may be used. […]

[2] = test system: children diagnosed with Autism; conditions: secretin given as diagnostic procedure during upper gastrointestinal endoscopy; Horvath et al. 1998; cited from earlier work
autistic children [3] = test: Fecal Chymotrypsin Test after secretin infusion in autistic children (Experiments 1 and 2); format: in vivo, human; conditions: 6 Months Post-Secretin Administration
Procedure: In this experiment, 16 children diagnosed as having autism were administered the following Fecal Chymotrypsin Test in accordance with an embodiment of the invention. First, approximately 2 grams of stool were collected from each child and placed in a sterile container (although it is to be understood that any quantity of stool may be collected, as 2 grams of stool is not a required amount). Each stool sample was then analyzed using, e.g., an enzymatic photospectrometry analysis as is known by those skilled in the art, to determine the level of fecal chymotrypsin in the stool. Although the enzymatic photospectrophotometry process is preferred, any suitable conventional method may be used for measuring the fecal chymotrypsin levels. The measured chymotrypsin levels of the 16 autistic children are illustrated in FIG. 13.
After determining the chymotrypsin levels of the stools, each of these levels were compared with threshold chymotrypsin levels to determine if the child was likely to benefit from secretin administration. By way of example, with the fecal chymotrypsin tests of the stool samples being performed at 30° C., normal levels of chymotrypsin are deemed to lie above 8.4 U/gram, whereas pathologically abnormal levels are deemed to lie below 4.2 U/gram. In addition, chymotrypsin levels between 8.4 U/gram and 4.2 U/gram are considered equivocal, and further testing of the individual's fecal chymotrypsin levels over a period of time should be performed. […]
The results of Experiment 1 are illustrated in FIGS. 1-14. For instance, approximately one week after the first secretin infusion, the fecal chymotrypsin level of each of the 16 autistic children was measured again. […]
In this experiment, 37 autistic children with abnormal fecal chymotrypsin levels were administered secretin over the course of 6 months using the secretin infusion process described above. Their fecal chymotrypsin (FC) levels were measured weekly using the fecal chymotrypsin test described above.

[4] = of 37 children (pre-secretin 0)

Substance: secretin
- CARS component scores (autistic children [1]): demonstrated improvement except for the fear component which increased
- effect on symptoms associated with Autism [2]: ameliorating the symptoms associated with Autism
- # Autistic Children w/Equivocal FC levels (autistic children [3]; [4]): 2
- # Autistic Children w/normal FC levels (autistic children [3]; [4]): 34
- # Autistic Children w/Abnormal FC levels (autistic children [3]; of 37 children (pre-secretin 37)): 1
